Test [1] has as its system Mus musculus. Description: Anticonvulsant activity in Swiss albino mouse assessed as protection against pentylenetetrazole-induced seizures at 10 mg/kg administered 1 hr before PTZ challenge relative to control. It is filed as functional.
The test system of test [2] is Mus musculus. Briefly: Anticonvulsant activity in Swiss albino mouse assessed as duration of pentylenetetrazole-induced seizures at 10 mg/kg administered 1 hr before PTZ challenge. Format: functional.

The source of these data is ChEMBL document CHEMBL1138556, “Synthesis of some new 4-styryltetrazolo[1,5-a]quinoxaline and 1-substituted-4-styryl[1,2,4]triazolo[4,3-a]quinoxaline derivatives as potent anticonvulsants” (2009).

In the case of `O=[N+]([O-])c1cccc(/C=C/c2nc3ccccc3n3nnnc23)c1`, the Activity stood at 0% with Mus musculus [1] and 11 s in the test on Mus musculus [2].
For `CCOc1ccc(-c2nnc3c(/C=C/c4ccc(Cl)cc4)nc4ccccc4n23)cc1O`, in that order: 0% and 12 s.
In the case of `COc1ccc2cc(/C=C/c3nc4ccccc4n4c(C(F)(F)F)nnc34)ccc2c1`, the Activity in the test on Mus musculus [1] is listed as 0%; with Mus musculus [2], 12 s.
For the compound `Cc1nnc2c(/C=C/c3cccc([N+](=O)[O-])c3)nc3ccccc3n12`, the Activity with Mus musculus [1] amounted to 0%; in the test with Mus musculus [2], 11 s.
For the compound `COc1ccc2cc(/C=C/c3nc4ccccc4n4nnnc34)ccc2c1`, the results for the Activity in the test on Mus musculus [1] and with Mus musculus [2] were 0% and 8 s, respectively.
For the compound `COc1ccc(/C=C/c2nc3ccccc3n3c(C)nnc23)cc1`, the Activity with Mus musculus [1] is recorded as 0%; in the test on Mus musculus [2] it was 14 s.
In the case of `Fc1ccc(/C=C/c2nc3ccccc3n3c(-c4ccc(-c5ccccc5)cc4)nnc23)cc1`, the Activity in the test on Mus musculus [1] came out at 0%; in the test with Mus musculus [2] it was 8 s.
Turning to `Fc1ccc(/C=C/c2nc3ccccc3n3nnnc23)cc1`, the Activity with Mus musculus [1] stood at 100%; in the test with Mus musculus [2], 0 s.
Take `Fc1ccc(/C=C/c2nc3ccccc3n3cnnc23)cc1`: the results for the Activity with Mus musculus [1] and with Mus musculus [2] were 100% and 0 s, respectively.
`Fc1ccc(/C=C/c2nc3ccccc3n3c(C(F)(F)F)nnc23)cc1`: the Activity worked out at 100% in the test on Mus musculus [1] and 0 s in the test on Mus musculus [2].
For `O=[N+]([O-])c1cccc(/C=C/c2nc3ccccc3n3cnnc23)c1`, in that order: 0% and 12 s.
As for `COc1ccc(/C=C/c2nc3ccccc3n3c(-c4ccc(F)cc4)nnc23)cc1`, the Activity with Mus musculus [1] worked out at 100%; in the test on Mus musculus [2] it was 0 s.
Take `Cc1nnc2c(/C=C/c3ccc(F)cc3)nc3ccccc3n12`: the Activity is on record as 100% with Mus musculus [1] and 0 s with Mus musculus [2].
In the case of `COc1ccc(/C=C/c2nc3ccccc3n3nnnc23)cc1`, the Activity in the test on Mus musculus [1] is on record as 0%; with Mus musculus [2], 11 s.
In the case of `COc1ccc(/C=C/c2nc3ccccc3n3c(C(F)(F)F)nnc23)cc1`, the Activity in the test on Mus musculus [1] is reported as 100%; with Mus musculus [2] it was 0 s.
`COc1ccc(-c2nnc3c(/C=C/c4ccc(Cl)cc4)nc4ccccc4n23)cc1`: the results for the Activity with Mus musculus [1] and in the test with Mus musculus [2] were 0% and 12 s, respectively.
For `COc1ccc(/C=C/c2nc3ccccc3n3cnnc23)cc1`, in that order: 0% and 14 s.
For `C(=C\c1nc2ccccc2n2nnnc12)/c1ccccc1`, the Activity in the test with Mus musculus [1] is on record as 100%; in the test on Mus musculus [2] it was 0 s.
